Results as given in publication PMC3974799 (PLoS ONE, 2014).

Legend:
[1] = target: T1, cytochrome bc1 complex (Btbc1), cyt b subunit (Bos taurus, UniProt P00157); experiment: cyt c reduction assay with purified bc1; type: biochemical
T1 construct: gene MT-CYB; purified 11-subunit mitochondrial bc1 complex from beef heart; with cyt c1, iron-sulfur protein (bc1 complex)

[2] = target: T1, cytochrome bc1 complex (Btbc1), cyt b subunit; experiment: Lineweaver-Burk kinetics at […]; difference spectra; single turnover; type: biochemical
[3] = target: T1, cytochrome bc1 complex (Btbc1), cyt b subunit; experiment: cyt c reduction assay with purified bc1; also difference spectra and Lineweaver-Burk kinetics; type: biochemical
[4] = tested on: T2, Complex III (cyt bc1 complex), cyt b subunit; experiment: cyt c reduction with decylubiquinol in isolated mitochondria, […] inhibition at […]; type: cell-based, Phytophthora capsici; settings: 4 µM
T2 construct: light mitochondrial fraction; with cyt c1, iron-sulfur protein (bc1 complex)

[5] = target: T3, cytochrome bc1 complex (Rsbc1), cyt b subunit (Cereibacter sphaeroides, UniProt Q02761); experiment: cyt c reduction assay with purified bc1; Lineweaver-Burk kinetics; type: biochemical
T3 construct: gene petB; purified hexahistidine-tagged 4-subunit bc1 complex; with cyt c1, iron-sulfur protein (bc1 complex)
T3 sequence (Q02761 2-445): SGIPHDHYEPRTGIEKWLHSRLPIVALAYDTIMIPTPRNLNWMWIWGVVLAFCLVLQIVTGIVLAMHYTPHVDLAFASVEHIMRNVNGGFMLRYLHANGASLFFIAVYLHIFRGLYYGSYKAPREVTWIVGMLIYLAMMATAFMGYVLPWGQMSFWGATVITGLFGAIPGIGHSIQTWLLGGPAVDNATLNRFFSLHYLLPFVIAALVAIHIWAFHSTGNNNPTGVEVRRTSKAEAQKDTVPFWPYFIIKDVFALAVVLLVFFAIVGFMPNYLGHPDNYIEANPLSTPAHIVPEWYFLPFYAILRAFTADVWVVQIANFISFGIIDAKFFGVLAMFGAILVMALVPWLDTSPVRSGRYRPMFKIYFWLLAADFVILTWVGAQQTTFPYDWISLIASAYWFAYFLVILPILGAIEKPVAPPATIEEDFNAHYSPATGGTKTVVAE

T1 sequence (P00157 whole entry): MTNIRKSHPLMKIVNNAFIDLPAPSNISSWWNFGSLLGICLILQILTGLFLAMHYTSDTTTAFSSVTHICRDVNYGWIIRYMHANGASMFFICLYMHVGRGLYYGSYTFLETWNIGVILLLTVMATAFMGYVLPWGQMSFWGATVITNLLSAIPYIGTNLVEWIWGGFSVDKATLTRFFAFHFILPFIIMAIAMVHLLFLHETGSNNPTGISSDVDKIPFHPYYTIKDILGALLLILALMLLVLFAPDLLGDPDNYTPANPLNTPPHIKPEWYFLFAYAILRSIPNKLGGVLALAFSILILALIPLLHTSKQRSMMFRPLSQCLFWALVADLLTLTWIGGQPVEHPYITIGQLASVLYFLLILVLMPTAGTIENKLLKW
T1 sequence (P13272 79-274 partner): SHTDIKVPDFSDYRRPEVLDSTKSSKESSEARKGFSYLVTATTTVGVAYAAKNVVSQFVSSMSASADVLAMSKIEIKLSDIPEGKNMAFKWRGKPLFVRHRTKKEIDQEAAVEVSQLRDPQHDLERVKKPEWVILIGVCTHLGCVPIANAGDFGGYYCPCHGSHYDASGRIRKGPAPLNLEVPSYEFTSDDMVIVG
T1 sequence (P00125 85-325 partner): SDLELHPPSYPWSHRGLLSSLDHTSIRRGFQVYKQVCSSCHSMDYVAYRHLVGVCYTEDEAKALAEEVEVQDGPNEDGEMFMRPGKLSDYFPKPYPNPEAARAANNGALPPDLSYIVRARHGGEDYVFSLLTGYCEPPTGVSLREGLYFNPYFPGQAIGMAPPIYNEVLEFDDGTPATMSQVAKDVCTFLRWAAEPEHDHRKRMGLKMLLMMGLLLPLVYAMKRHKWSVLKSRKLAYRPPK

`CO/C=C(/C(=O)OC)c1ccccc1Oc1cc(Oc2ccccc2C#N)ncn1` [azoxystrobin] showed an IC50 [1] of 0.0477 µM.
`CO/C(=C/C(N)=O)[C@H](C)[C@H](/C=C/c1csc(-c2csc([C@@H](C)/C=C/C=C/C(C)C)n2)n1)OC` [myxothiazol] was tested, and the “Lineweaver-Burk kinetics at 30 and 50 nM; difference spectra; single turnover” value [2] was “myxothiazol is a competitive inhibitor for the substrate quinol but a non-competitive inhibitor for cyt c”.
`CC(C)(C)c1ccc(/C(=C/C(=O)N2CCOCC2)c2ccnc(Cl)c2)cc1` [pyrimorph, (Z)-3-[(2-chloropyridine-4-yl)-3-(4-tert-butylphenyl)-acryloyl] morpholine] showed an IC50 [3] of 85 µM, a percent inhibition [4] of 95.3 and an IC50 [5] of 69.2 µM.
`C/C=C(C)/C=C/C=C/[C@H](OC)[C@@H](C)[C@@H](OC)[C@@H](C)CCc1oc2c(O)c(OC)cc(OC)c2c(=O)c1C` [stigmatellin] was tested, and the IC50 [1] was 0.0028 µM.
